Measurements: US11684601B2, “Treatment of cancer with combinations of agents” (The Board of Trustees of the Leland Stanford Junior …, priority 2019, dated 2023)

Legend:
CHP134 cells [1] = assay: qPCR for SNCG and NGFR expression, CHP134; format: cell-based; settings: hypoxia, 16 h
Protocol: (§1) RNA Isolation, Reverse Transcription, and Real-Time PCR. Total RNA was isolated from tissue culture plates according to the TRIzol Reagent (Invitrogen) protocol. 3 μg of total RNA was used in the reverse transcription reaction using the iScript cDNA synthesis kit (Bio-Rad). Quantitative PCR amplification was performed on the Prism 7900 Sequence Detection System (Applied Biosystems) using Taqman Gene Expression Assays (Applied Biosystems). Gene expression data were normalized to 18S rRNA.

[2] = test system: acetylation on H3K9, H3K27, and total H3; assay: Immunoblots of histone acetylation; format: cell-based; settings: hypoxia, CHP134; for acetylation on H3K9, H3K27, and total H3: 5 mM acetate, 0.5 mM or 2 mM GTA
Protocol: (§2) Protein isolation and western blot. Cells were washed with PBS buffer and lysed with Harvest lysis buffer supplemented with Halt inhibitors for 5-10 min. Cell lysate was centrifuged at 5000 rpm for 5 min at 4° C. The supernatant containing cytosolic proteins was transferred to a new EP tube. The insoluble part contains nuclear proteins and was further lysed with nuclear lysis buffer for 5 min at 4° C. Then the lysate was sonicated in water-bath at 4° C. for 6 cycles (1 cycle=30 s sonication and 30 s cooldown). After sonication, the cell lysate was centrifuged at 15000 rpm for 10 min. Protein concentration was determined by BOA assay. 1 μg nuclear proteins or 1 μg cytosolic proteins were boiled in loading buffer with reducing reagents, then separated with SDS-PAGE. Protein were transferred onto a nitrocellulose membrane. After blocking in 5% non-fat milk for 1 hour, the first antibody was applied. After 3×TBST washes, HRP-conjugated secondary antibodies were applied. Signals were detected with an ECL kit. The complete antibody list is in table 1.

[3] = test system: tri-methylation on H3K9, H3K27; assay: Immunoblots of histone methylation; format: cell-based; settings: hypoxia; CHP134; 1 mM or 5 mM DMKG
Protocol: as §2

[4] = infants with Canavan disease; high dose; cited from earlier work
SMS-KCNR cells [5] = assay: qPCR for SNCG and NGFR expression, SMS-KCNR; format: cell-based; settings: hypoxia; 10 μM RA combined with 5 mM acetate or 2 mM GTA, 16 h
Protocol: as §1

SMS-KCNR cells [6] = assay: Neurite outgrowth assay, SMS-KCNR; format: cell-based; settings: 48 h
Protocol: (§3) Neurite outgrowth assay. For the differentiation of neuroblastoma cells, 1×10^5 CHP134 or SMS-KNCR cells were plated in 6 well-plate. After overnight incubation, cells in hypoxia treatment group were pre-incubated in 0.5% 02 hypoxia chamber for 6 h. Then RA was added to reach a final concentration of 10 μM. After 48 h treatment, images were taken through an Olympus phase contrast microscope (×20 magnification). The lengths of the neurites were traced and quantified using the ImageJ plugin NeuronJ. Within each sample, total neurite length was measured and normalized by the number of cell bodies, mean value from biological triplicates was reported.

[7] = Acetate measurement in plasma; format: in vivo, NSG mice; settings: oral GTA, 5% in drinking water; p-value not significant
Protocol: For acetate measurement, 10 ul of serum was mixed with 10 ul of 50 uM ^13C2-acetate. Then, the mixture was precipitated by the addition of 80 ul acetonitrile and centrifuged for 10 min at 20,000×g. 80 ul supernatant was transferred to a new tube and derivertized according to the published protocol. 2 ul sample was subjected to mass spectrometry analysis using Agilent 1290 coupled to Q-TOF 6545. […] The mobile phase were 5 mM ammonium formate and 0.1% formic acid in water (A) and 90% acetonitrile (B). […] Agilent Q-TOF was operated in positive mode with ion spray voltage at 3500 V. The ratio of acetate to ^13C2-acetate was calculated using Agilent Profinder software B.08.00.
Mouse xenograft model. In viva studies were performed in accordance with protocols approved by the Institutional Animal Care and Use Committee at Stanford University and in compliance with all regulatory standards, 6 to 8-week-old male NSG mice were provided by Dr. Erinn Rankin. 2×10^6 CHP134 cells suspended in […] of RPMI-1640 with 50% Matrigel (BD Biosciences) were implanted subcutaneously into the dorsal flank of the mice. Tumor growth was recorded using digital caliper every other day, and tumor volumes were estimated using the formula: (L×W^2)/2, where L=length and W=width of tumor. The animals were randomized into 4 groups (Control, RA, GTA and GTA+RA) when the tumor volumes reached approximately 150 mm^3. […]

CHP134 cells [8] = assay: Neurite outgrowth assay, CHP134; format: cell-based
Protocol: as §3

CHP134 cells [9] = assay: Immunofluorescence staining of β-tubulin III / MAP2; format: cell-based; settings: 10 μM RA, 72 h
Protocol: Immunofluorescence staining. […] cells were seeded into 8-champer slides with a density of 6000 cells/well and incubated with indicated treatment for 3 days. Cells were fixed with 4% PFA in 0.1% PBS-tween at room temperature for 30 min followed by permeabilization with 0.1% Triton X-100 in PBS at room temperature for 10 min. The cells were washed with PBS twice and blocked with 2.5% horse serum at room temperature for 1 hour. Then, cells were subjected to immunofluorescence staining with primary antibody overnight at 4° C. After twice washes with PBS, cells were incubated with Alexa Fluor 594-labeled anti-rabbit secondary antibody (Life Technologies) at room temperature for 1 hour followed by staining with DAP for 20 min. Images were acquired with Leica DMi8 microscope.

CHP134 cells [10] = assay: RNA-Seq pathway analysis of RA-upregulated genes; format: cell-based; settings: 24 h RA vs DMSO
Protocol: RNA Sequencing. The total RNA from four treatment groups (Nor_Ctrl, Nor_RA, Hyp_Ctrl and Hyp_RA, 3 replicates) was extracted using Trizol reagent according to the manufacturer's instructions (n=3). The RNA-seq library was constructed and subjected to 150 bp paired-end sequencing on an Illumina sequencing platform (Novogene). RNA-seq analysis was performed using the kallisto and sleuth analytical pipeline. In brief, a transcript index was generated with reference to Ensembl version 57 for hg19. Paired-end mRNA-seq reads were pseudo-aligned using kallisto (v0.42.4) with respect to this transcript index using 100 bootstraps (-b 100) to estimate the variance of estimated transcript abundances. Transcript-level estimates were aggregated to transcripts per million (TPM) estimates for each gene, with gene names assigned from Ensembl using biomaRt. Differential gene expression analysis was performed using the sleuth R package across pairwise groups (normoxia DMSO vs. normoxia RA, normoxia DMSO vs. hypoxia DMSO, normoxia RA vs. hypoxia RA) using Wald tests, with significant hits called with a sleuth q-vaulue<0.05 and fold change estimate b>abS(In(2)).

CHP134 mice xenografts = assay: Mouse xenograft model; format: in vivo; settings: 10 mg/kg RA i.p. daily; after 23 days' treatment
Protocol: Mouse xenograft model. […] Tumor growth was recorded using digital caliper every other day, and tumor volumes were estimated using the formula: (L×W^2)/2, where L=length and W=width of tumor. The animals were randomized into 4 groups (Control, RA, GTA and GTA+RA) when the tumor volumes reached approximately 150 mm^3. 10 mg/kg RA or DMSO vehicle was injected intraperitoneally daily for 3 weeks. Mice received GTA in the drinking water (5% by weight).

[11] = Pharmacokinetics of RA in NSG mice; format: in vivo
Protocol: For 13-cis-retinoic acid measurement, serum samples were collected at 0.5 h, 1 h, 2 h and 6 h after RA injection (10 mg/kg, i.p.). 10 ul serum was mixed with 90 ul extraction buffer (ethyl acetate:n-hexane:IPA, 30:60:10). After 20 min on a shaker at 120 rpm, the mixture was centrifuged at 5000 g for 5 min. The organic layer was collected into a new tube and dried using speed vacuum. The residue was reconstituted with 100 ul of 5 mM ammonium formate in water/acetonitrile (1:1). 5 ul sample was subjected to mass spectrometry analysis using Agilent 1290 coupled to QQQ 6470. […] The mobile phase was 5 mM ammonium formate and 0.1% formic acid in water (A) and 90% acetonitrile (B). […] Agilent QQQ 6470 was operated in positive mode with ion spray voltage at 3000 V. The MRM transitions were 301.2→159.1/205.1. Data was processed by Agilent MassHunter Quantitative Analysis for QQQ B.07.01. (Agilent Technologies)

[12] = test system: chromatin accessibility at RAR/RXR binding sites; settings: hypoxia; 5 mM acetate
Protocol: ATAC-seq. ATAC-seq was performed and analyzed as previously described (n=2). […] -O 5 -m 30 -q 15. Bowtie 2 version 2.3.1 was used to align trimmed reads to hg19 with flags -q -phred33-X 2000 -fr -p 8 -x hg19, followed by samtools sort command. Duplicates were marked with Picard-tools version 1.83, then samtools view with flags -b -f 1 -F12 -L were used to filter mitochondria mapping reads with a bed file containing all chromosomes except chrM. Filtered mapping files are transferred into coverage bigwig file using deeptools with default bin size (10 bps). SPP/phantom was run to obtain the fragment length with maximum Strand cross-correlation. MACS2 callpeak function was then performed with flags -q 0.05 -nomodel-extsize=½ fragment length obtained from SPP. Associate p-values for each peak is generated and extracted from MACS2 output. Ranked gene lists were created from the RNA-Seq and ATAC-Seq datasets following differential testing. Gene set enrichment analysis were performed using the GSEA with the C2 (CP:REACTOME) MSigDB v6.2.

CHP134 cells [13] = settings: hypoxia vs normoxia; U-13C-acetate 3 h
Protocol: Metabolic tracing study. For glucose isotope tracing, CHP134 cells were pretreated under normoxia or hypoxia for 16 h (n=3). Then the medium was changed to DMEM:F12 with 3.15 g/L ^13C6-glucose with 10% dialyzed FBS for 3 h. For acetate isotope tracing, the procedure was same as glucose tracing except that the complete DMEM:F12 medium was supplemented with 2 mM ^13C2-acetate.
Liquid chromatography-mass spectrometry analysis. For the metabolic tracing study, cells were washed with cold PBS, lysed in 80% Ultra LC-MS acetonitrile on ice for 15 min, centrifuged for 10 min at 20,000×g, and supernatant was subjected to mass spectrometry analysis. Liquid chromatography was performed using an Agilent 1290 Infinity LC system (Agilent, Santa Clara, US) coupled to a Q-TOF 6545 mass spectrometer (Agilent, Santa Clara, US). A hydrophilic interaction chromatography method (HILIC) with a BEH amide column (100 ×2.1 mm i.d., 1.7 μm; Waters) was used for compound separation at 35° C. with a flow rate of 0.3 ml/min. The mobile phase A consisted of 25 mM ammonium acetate and 25 mM ammonium hydroxide in water and mobile phase B was acetonitrile. The gradient elution was 0-1 min, 85 % B; 1-12 min, 85% B→65% B; 12-12.2 min, 65% B→40% B; 12.2-15 min, 40% B. After the gradient, the column was re-equilibrated at 85% B for 5 min. The overall runtime was 20 min, and the injection volume was 5 μL. […]

[14] = 10 μM RA combined with 5 mM acetate or 2 mM GTA

## COC(=O)CCC(=O)C(=O)OC [DMKG, Dimethyl-α-ketoglutarate]
CHP134 cells [1]; 10 μM RA combined with 5 mM DMKG
  expression of NGFR and SNCG: did not restore the expression of NGFR and SNCG
[2]; 1 mM or 5 mM DMKG
  histone acetylation: did not significantly increase histone acetylation
[3]
  histone hypermethylation: reduced histone hypermethylation

## CC(=O)OCC(COC(C)=O)OC(C)=O [GTA, glycerol triacetate]
CHP134 cells [1]; [14]
  expression of NGFR and SNCG: significantly restored the expression of NGFR and SNCG
[2]
  acetylation on H3K9, H3K27, and total H3: restored acetylation on H3K9, H3K27, and total H3
[4]
  toxicity: no detectable toxicity
SMS-KCNR cells [5]
  expression of NGFR and SNCG: significantly restored the expression of NGFR and SNCG
SMS-KCNR cells [6]; hypoxia, 10 μM RA plus 2 mM GTA
  RA-induced neuron-like morphological changes: restored the RA-induced neuron-like morphological changes
[7]
  plasma acetate concentration vs control group: slight increase of plasma acetate concentration
CHP134 cells [8]; GTA alone
  differentiative activity as a single agent: little to no differentiative activity
CHP134 cells [8]; hypoxia, 10 μM RA plus 2 mM GTA, 48 h
  RA-induced neuron-like morphological changes: restored the RA-induced neuron-like morphological changes

## CC1=C(/C=C/C(C)=C/C=C/C(C)=C\C(=O)O)C(C)(C)CCC1 [RA, 13-cis-retinoic acid]
CHP134 cells [9]; hypoxia vs normoxia
  β-tubulin III/MAP2 positive neurites: partially suppressed
CHP134 cells [9]; normoxia
  β-tubulin III/MAP2 positive neurites: increased β-tubulin III/MAP2 positive neurites
SMS-KCNR cells [6]; 10 μM RA, hypoxia (0.5% O2) vs normoxia
  neurite outgrowth and differentiation morphology: partially diminished nerite outgrowth and the differentiation morphology
SMS-KCNR cells [6]; 10 μM RA, normoxia (21% O2)
  cell morphological changes / neurite outgrowth: induced obvious cell morphological changes to a mature neuronal-like phenotype characterized by neurite outgrowth
CHP134 cells [10]
  pathway analysis of RA-upregulated genes: enrichment of NGF signaling, transmission across of chemical synapses and neuronal system genes
CHP134 mice xenografts
  anti-tumor effect (tumor volume, tumor weight): didn't show anti-tumor effect
CHP134 cells [8]; 10 μM RA, 48 h, hypoxia (0.5% O2) vs normoxia
  neurite outgrowth and differentiation morphology: partially diminished nerite outgrowth and the differentiation morphology
CHP134 cells [8]; 10 μM RA, 48 h, normoxia (21% O2)
  cell morphological changes / neurite outgrowth: induced obvious cell morphological changes to a mature neuronal-like phenotype characterized by neurite outgrowth
[11]; 10 mg/kg i.p.
  half-life of RA: relative short half-life
  time blood RA concentration maintained above 10 uM: around 2 h
[11]; 10 mg/kg i.p., at 6 h after injection
  blood RA concentration: reduced to the basal level
[11]; 10 mg/kg i.p., maintained for around 2 h
  blood RA concentration: above 10 uM
[11]; 10 mg/kg, after i.p. injection
  time of peak blood RA concentration: 30 min

## CC(=O)[O-].[Na+] [acetate, Sodium acetate]
CHP134 cells [1]; [14]
  expression of NGFR and SNCG: significantly restored the expression of NGFR and SNCG
[2]
  acetylation on H3K9, H3K27, and total H3: restored acetylation on H3K9, H3K27, and total H3
SMS-KCNR cells [5]
  expression of NGFR and SNCG: significantly restored the expression of NGFR and SNCG
[12]
  chromatin accessibility: partially restored chromatin accessibility
  chromatin accessibility of genes with RAR/RXR binding sites: increased chromatin accessibility
CHP134 cells [13]
  cellular acetyl-CoA production (13C labeled acetyl-CoA[M+2]): promote cellular acetyl-CoA production
